Data taken from US10450347B2, “Immunomodulators” (BRISTOL-MYERS SQUIBB COMPANY, priority 2015, dated 2019).
Starred links: 1 amine or outer side, 2 acyl side, 3 side chain; linkers in the order of their positions; H or OH if unused. Positions of bridges follow the written chain, without caps; N, C: chain ends. Non-standard residues stand in square brackets, D forms with d. Residues, ends and D or L forms follow the SMILES beside them. Tyrψ(CN4)Ala = C[C@@H](C(=O)[*:2])n1nnnc1[C@H](Cc1ccc(O)cc1)N[*:1]; X1 = CCCC[C@@H](C(=O)[*:2])n1nnnc1[C@H](Cc1c[nH]c2ccccc12)N[*:1]; X3 = O=C(C[C@@H](CO)C(=O)[*:2])[C@H](Cc1c[nH]c2ccccc12)N[*:1]; X4 = CCCC[C@@H](C(=O)[*:2])n1nnnc1[C@H](Cc1csc2ccccc12)N[*:1]; Bta = N[C@@H](Cc1csc2ccccc12)C(=O)O; Hyp = O=C(O)[C@@H]1C[C@@H](O)CN1; NMeNle = CCCC[C@H](NC)C(=O)O; NMeA = CN[C@@H](C)C(=O)O; Orn = NCCC[C@H](N)C(=O)O; Dap = NC[C@H](N)C(=O)O

Target: T1, PD-1-Ig/PD-L1-His (Homo sapiens, UniProt Q9NZQ7)
T1 construct: [hPD-L1(19-239)-tobacco vein mottling virus protease cleavage site (TVMV)-His]; made in house; host or cells: HEK293T cells
Test: PD-1/PD-L1 Homogenous Time-Resolved Fluorescence (HTRF) binding assay
Settings: inhibition of PD-1-Ig binding to PD-L1-TVMV-His; numeric values
Text: The ability of the macrocyclic peptides of the present disclosure to bind to PD-L1 was investigated using a PD-1/PD-L1 Homogenous Time-Resolved Fluorescence (HTRF) binding assay.
Homogenous Time-Resolved Fluorescence (HTRF) Assays of Binding of Soluble PD-1 to Soluble PD-L1. Soluble PD-1 and soluble PD-L1 refers to proteins with carboxyl-end truncations that remove the transmembrane-spanning regions and are fused to heterologous sequences, specifically the Fc portion of the human immunoglobuling G sequence (Ig) or the hexahistidine epitope tag (SEQ ID NO: 3) (His). All binding studies were performed in an HTRF assay buffer consisting of dPBS supplemented with 0.1% (w/v) bovine serum albumin and 0.05% (v/v) Tween-20. For the PD-1-Ig/PD-L1-His binding assay, inhibitors were pre-incubated with PD-L1-His (10 nM final) for 15 m in 4 μl of assay buffer, followed by addition of PD-1-Ig (20 nM final) in 1 μl of assay buffer and further incubation for 15 m. PD-L1 fusion proteins from either human, cynomologous macaques, mouse, or other species were used. HTRF detection was achieved using europium crypate-labeled anti-Ig monoclonal antibody (1 nM final) and allophycocyanin (APC) labeled anti-His monoclonal antibody (20 nM final). Antibodies were diluted in HTRF detection buffer and 5 μl was dispensed on top of binding reaction. The reaction was allowed to equilibrate for 30 minutes and signal (665 nm/620 nm ratio) was obtained using an EnVision fluorometer. Additional binding assays were established between PD-1-Ig/PD-L2-His (20 and 5 nM, respectively), CD80-His/PD-L1-Ig (100 and 10 nM, respectively) and CD80-His/CTLA4-Ig (10 and 5 nM, respectively). Binding/competition studies between biotinylated Compound No. 71 and human PD-L1-His were performed as follows. Macrocyclic peptide inhibitors were pre-incubated with PD-L1-His (10 nM final) for 60 minutes in 4 μl of assay buffer followed by addition of biotinylated Compound No. 71 (0.5 nM final) in 1 μl of assay buffer. Binding was allowed to equilibrate for 30 minutes followed by addition of europium crypated labeled Streptavidin (2.5 pM final) and APC-labeled anti-His (20 nM final) in 5 μl of HTRF buffer. The reaction was allowed to equilibrate for 30 m and signal (665 nm/620 nm ratio) was obtained using an EnVision fluorometer.
Recombinant Proteins. Carboxyl-truncated human PD-1 (amino acids 25-167) with a C-terminal human Ig epitope tag [hPD-1 (25-167)-3S-IG] and human PD-L1 (amino acids 18-239) with a C-terminal His epitope tag [hPD-L1(19-239)-tobacco vein mottling virus protease cleavage site (TVMV)-His] were expressed in HEK293T cells and purified sequentially by recombinant Protein A affinity chromatography and size exclusion chromatography. Human PD-L2-His (Sino Biologicals), CD80-His (Sino Biologicals), CTLA4-Ig (RnD Systems) were all obtained through commercial sources.

T1 sequence (Q9NZQ7 with tags, fused parts or gaps): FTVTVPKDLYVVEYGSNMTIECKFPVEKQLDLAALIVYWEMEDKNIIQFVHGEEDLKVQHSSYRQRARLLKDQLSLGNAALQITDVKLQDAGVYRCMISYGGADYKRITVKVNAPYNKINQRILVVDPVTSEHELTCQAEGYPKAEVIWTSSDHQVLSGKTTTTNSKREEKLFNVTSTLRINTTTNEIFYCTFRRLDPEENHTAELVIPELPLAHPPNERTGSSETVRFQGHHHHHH

Row | Compound | IC50 [nM]
1 | CCCC[C@H]1C(=O)N[C@@H](CN)C(=O)N[C@H](C(=O)NCC(N)=O)CSCC(=O)N[C@@H](Cc2ccc(O)cc2)C(=O)N[C@H](C)C(=O)N[C@@H](CC(=O)O)C(=O)N2CCC[C@H]2C(=O)N[C@@H](Cc2cnc[nH]2)C(=O)N[C@@H](CCC(N)=O)C(=O)N2C[C@H](O)C[C@H]2C(=O)N[C@@H](Cc2c[nH]c3ccccc23)C(=O)N[C@@H](CO)C(=O)N[C@@H](Cc2cccc3ccccc23)c2nnnn2[C@@H](CCCC)C(=O)N1C [Example 1111] | 2160

Same assay, conditions: inhibition of PD-1-Ig binding to PD-L1-TVMV-His; range classes

Row | Compound | IC50 [nM]
2 | CCCC[C@H]1C(=O)N[C@@H](CCCN)C(=O)N[C@H](C(=O)NCC(N)=O)CSCC(=O)N[C@@H](Cc2ccc(O)cc2)C(=O)N(C)[C@@H](C)C(=O)N[C@@H](CC(N)=O)C(=O)N2CCC[C@H]2C(=O)N[C@@H](Cc2cnc[nH]2)C(=O)N[C@@H](CC(C)C)C(=O)N2C[C@H](O)C[C@H]2C(=O)N[C@@H](Cc2c[nH]c3ccccc23)C(=O)C[C@@H](CO)C(=O)N[C@@H](Cc2csc3ccccc23)c2nnnn2[C@@H](CCCC)C(=O)N1C [Example 1013] ({CH2CO}-Y[NMeA]NPHL[Hyp][X3][X4][NMeNle][Orn]CG-NH2; thioether N-12) | 10 to 99
3 | CCCC[C@H]1C(=O)N[C@@H](CCCNC(=N)N)C(=O)N[C@H](C(=O)NCC(N)=O)CSCC(=O)N[C@@H](Cc2ccc(O)cc2)C(=O)N(C)[C@@H](C)C(=O)N[C@@H](CC(N)=O)C(=O)N2CCC[C@H]2C(=O)N[C@@H](Cc2cnc[nH]2)C(=O)N[C@@H](CC(C)C)C(=O)N2C[C@H](O)C[C@H]2C(=O)N[C@@H](Cc2c[nH]c3ccccc23)C(=O)N[C@@H](CO)C(=O)N[C@@H](Cc2cccc3ccccc23)c2nnnn2[C@@H](CCCC)C(=O)N1C [Example 1052] | 10 to 99
4 | CCCC[C@H]1C(=O)N[C@@H](CCC(=O)O)C(=O)N[C@H](C(=O)NCC(N)=O)CSCC(=O)N[C@@H](Cc2ccc(O)cc2)C(=O)N(C)[C@@H](C)C(=O)N[C@@H](CC(=O)O)C(=O)N2CCC[C@H]2C(=O)N[C@@H](CN)C(=O)N[C@@H](CCC(=O)O)C(=O)N2C[C@H](O)C[C@H]2C(=O)N[C@@H](Cc2c[nH]c3ccccc23)C(=O)N[C@@H](CO)C(=O)N[C@@H](Cc2c[nH]c3ccccc23)c2nnnn2[C@@H](CCCC)C(=O)N1C [Example 1101] ({CH2CO}-Y[NMeA]DP[Dap]E[Hyp]WS[X1][NMeNle]ECG-NH2; thioether N-13) | 100 to 10000
5 | CCCC[C@H]1C(=O)N[C@H](CCCNC(=N)N)C(=O)N[C@@H](C(=O)NCC(N)=O)CSCC(=O)N[C@@H](Cc2ccccc2)C(=O)N(C)[C@@H](C)C(=O)N[C@@H](CC(N)=O)C(=O)N2CCC[C@H]2C(=O)N[C@@H](Cc2cnc[nH]2)C(=O)N[C@@H](CC(C)C)C(=O)N(C)CC(=O)N[C@@H](Cc2c[nH]c3ccccc23)C(=O)N[C@@H](CO)C(=O)N[C@@H](Cc2cccc3ccccc23)c2nnnn2[C@@H](CCCC)C(=O)N1C [Example 1005] | 100 to 10000
6 | CCCC[C@H]1C(=O)N[C@@H](CN)C(=O)N[C@H](C(=O)NCC(N)=O)CSCC(=O)N[C@@H](Cc2ccc(O)cc2)C(=O)N(C)[C@@H](C)C(=O)N[C@@H](CC(=O)O)C(=O)N2CCC[C@H]2C(=O)N[C@@H](Cc2cnc[nH]2)C(=O)N[C@@H](CCC(N)=O)C(=O)N2C[C@H](O)C[C@H]2C(=O)N[C@@H](Cc2c[nH]c3ccccc23)C(=O)N[C@@H](CO)C(=O)N[C@@H](Cc2cccc3ccccc23)c2nnnn2[C@@H](CCCC)C(=O)N1C [Example 1107] | 100 to 10000
7 | CCCC[C@H]1C(=O)N(C)[C@@H](CCCC)C(=O)N[C@@H](C)C(=O)N[C@H](C(=O)NCC(=O)O)CSCC(=O)N[C@@H](Cc2ccc(O)cc2)c2nnnn2[C@@H](C)C(=O)N[C@@H](CC(=O)O)C(=O)N2CCC[C@H]2C(=O)N[C@@H](Cc2c[nH]cn2)C(=O)N[C@@H](CCC(N)=O)C(=O)N2C[C@H](O)C[C@H]2C(=O)N[C@@H](Cc2c[nH]c3ccccc23)C(=O)N[C@@H](CO)C(=O)N[C@@H](Cc2csc3ccccc23)C(=O)N1C [Example 1110] ({CH2CO}-[Tyrψ(CN4)Ala]DPHQ[Hyp]WS[Bta][NMeNle][NMeNle]ACG-OH; thioether N-13) | 100 to 10000
8 | CCCC[C@H]1C(=O)N[C@@H](CCCN)C(=O)N[C@H](C(=O)NCC(N)=O)CSCC(=O)N[C@@H](Cc2ccc(O)cc2)C(=O)N(C)[C@@H](C)C(=O)N[C@@H](CC(N)=O)C(=O)N2CCC[C@H]2C(=O)N[C@@H](CN)C(=O)N[C@@H](CC(C)C)C(=O)N2C[C@H](O)C[C@H]2C(=O)N[C@@H](Cc2c[nH]c3ccccc23)C(=O)N[C@@H](CO)C(=O)N[C@@H](Cc2c[nH]c3ccccc23)c2nnnn2[C@@H](CCCC)C(=O)N1C [Example 1051] ({CH2CO}-Y[NMeA]NP[Dap]L[Hyp]WS[X1][NMeNle][Orn]CG-NH2; thioether N-13) | 100 to 10000
9 | CCCC[C@H]1C(=O)N[C@@H](CCC(=O)O)C(=O)N[C@H](C(=O)NCC(N)=O)CSCC(=O)N[C@@H](Cc2ccc(O)cc2)C(=O)N(C)[C@@H](C)C(=O)N[C@@H](CC(N)=O)C(=O)N2CCC[C@H]2C(=O)N[C@@H](CN)C(=O)N[C@@H](CC(C)C)C(=O)N2C[C@H](O)C[C@H]2C(=O)N[C@@H](Cc2c[nH]c3ccccc23)C(=O)N[C@@H](CO)C(=O)N[C@@H](Cc2c[nH]c3ccccc23)c2nnnn2[C@@H](CCCC)C(=O)N1C [Example 1102] ({CH2CO}-Y[NMeA]NP[Dap]L[Hyp]WS[X1][NMeNle]ECG-NH2; thioether N-13) | 100 to 10000

Tested on: not given
Test: not given
Settings: oral administration, extensive first-pass metabolism in the liver; cited from earlier work

Row | Compound | bioavailability
10 | CCCC1O[C@@H]2C[C@H]3[C@@H]4CCC5=CC(=O)C=C[C@]5(C)[C@H]4[C@@H](O)C[C@]3(C)[C@]2(C(=O)CO)O1 (stereo partly shown) [budesonide] | about 10%
